Patent US10119168B2, “Methods for the treatment of kidney fibrosis” (priority 2014, dated 2018)

Test system: mouse kidney
Assay: Folic acid nephropathy model, High dose vs Low dose FA (histology, qRT-PCR)
Settings: High dose group compared to Low dose group, day 14
Experimental: Mice were sacrificed at 1, 2, 3, 7 and 14 days following administration. […] All mice were sacrificed at 14 days.
Formalin fixed, paraffin embedded kidney sections were Masson Trichrome's stained and evaluated by a renal pathologist under a light microscope in blinded fashion relative to sample group. Percent area of fibrosis relative to the total section area was evaluated. Sirius red staining of the […] sections was performed at the Michigan State University Investigative Histopathology Laboratory.
Total RNA was extracted from frozen kidney tissue using TRIzol reagent (Invitrogen). Following RNA concentration measurement by NanoDrop spectrophotometer (Thermo Fischer Scientific), 1 μg RNA was used for cDNA preparation using QuantiTect Reverse Transcription Kit from Qiagen (Valencia, Calif.). qRT-PCR using QuantiFast SYBR Green PCR Kit (Qiagen) was performed in 384-well plates on an Applied Biosystems 7900HT Fast Real-Time PCR System instrument with the following temperature profile: 3 min enzyme activation at 95° C. followed by 40 cycles of 95° C. for 10 s, and 55° C. for 30 s. Primer pairs used are listed in Supplementary Table 1. Gapdh was used as reference gene for normalization. The SDS 2.4 software (Applied Biosystems) was used to compute the threshold cycle (Cq) and the relative expression for an mRNA was assessed using the 2^−ΔCq method.

## Nc1nc2ncc(CNc3ccc(C(=O)N[C@@H](CCC(=O)O)C(=O)O)cc3)nc2c(=O)[nH]1 [FA, folic acid]
  candidate fibrosis markers mRNA levels: Nine out of ten candidate fibrosis markers showed significantly (p<0.05) higher mRNA levels
